# pIC50: −log10 of the molar value.
# Tested on: KMS.12.BM cell line (human myeloma)
# Experiment: KMS.12.BM cell viability assay
# Format: cell-based
# Conditions: 3 days, Cell Titer-GLO ATP quantitation; concentration required for 50% cell death
# Procedure: KMS.12.BM cell line (human myeloma) was purchased from JCRB (Osaka, Japan) and maintained in RPMI with 10% FBS culture medium. To measure the cytotoxic activity of the compounds through ATP quantitation, the KMS.12.BM cells are plated in the RPMI culture medium at 5000 cells/well/per 100 μL into a 96-well polystyrene clear black tissue culture plate (Greiner-bio-one through VWR, NJ), in the presence or absence of a concentration range of test compounds. After 3 days, […] Cell Titer-GLO Luminescent (Promega, Madison, Wis.) cell culture agent is added to each well for 10 minutes at room temperature to stabilize the luminescent signal. This determines the number of viable cells in culture based on quantitation of the ATP present, which signals the presence of metabolically active cells. Luminescence is measured with the Top Count 384 (Packard Bioscience through Perkin Elmer, Boston, Mass.). Compound inhibition is determined relative to cells cultured with no drug and the IC50 is reported as the compound concentration required for 50% cell death.
smiles,measurement,value
"Cn1cc(-c2cc(S(C)(=O)=O)cc3c2NC2(CCC2)C(=O)N3)c2cc[nH]c2c1=O [Example 62, 8′-(6-methyl-7-oxo-6,7-dihydro-1H-pyrrolo[2,3-c]pyridin-4-yl)-6′-(methylsulfonyl)-1,4′-dihydro-3H-spiro[cyclobutane-1,2′-quinoxalin]-3′-one]",pIC50,≥ 6.00

# Reference: patent US11702416B2, “1H-pyrrolo[2,3-c]pyridin-7(6H)-ones and pyrazolo[3,4-c]pyridin-7(6H)-ones as inhibitors of BET proteins” (Incyte Corporation, priority 2014, dated 2023)
